Among the data in a melting point compilation (Tetko et al.) are melting point values, retold here.

As a reminder, the melting point is the temperature of the solid-liquid transition. In the case of `O=C(N=NC(=O)N1CCCCC1)N1CCCCC1`, the melting point came out at 135 °C.
The result for `CC(C)(C)OCC1CO1` (configuration not stated) reads -70 °C; that for `CC(C)(C)OC(=O)N1CCC(c2nc(CO)cs2)CC1`, 97 to 101 °C.
The molecule `NCc1ccc(-c2ccccc2)nc1` registered a melting point of 38 to 40 °C.
Next, `COC(=O)c1ccc(NS(=O)(=O)c2ccc(C)cc2)c(NS(=O)(=O)c2ccc(C)cc2)c1`: 180 to 182 °C.
Next, `O=C1C=C2CC3(O)COc4c(ccc(O)c4O)C3=C2C=C1O` (configuration not stated): 180 °C.
The result for `COc1cscc1C(N)=O` reads 120 to 121 °C.
`Cc1ccc(S(=O)(=O)NCCCC[C@H](N)C(=O)O)cc1` registered a melting point of 231 to 234 °C.
The molecule `Cc1cc(C(=O)O)cc(C)c1F` yielded a melting point of 166 °C.
The result for `S=c1sc2ccccc2n1CCl` reads 126 to 131 °C.
Next, `CCO[Si](Cl)(OCC)OCC`: -51 °C.
Regarding `Cc1cc(C(C)(C)C)cc(C(C)(C)C)c1`, the melting point worked out at 32 °C.
As for `Cc1ccc(NC(=O)CCC2C(=O)C3(C)CCC2C3(C)C)cc1` (configuration not stated), the melting point was 114 °C.
The result for `N#CC#N` reads -27.9 °C; that for `COc1ccc(CCN2CCC(Nc3nc4ccccc4n3Cc3ccc(F)cc3)CC2)cc1`, 149 °C; that for `CC(CCC(=O)O)n1nc2ccccc2n1` (configuration not stated), 73 °C.
The molecule `O=C1c2ccccc2C(=O)N1c1n[nH]c2ncccc12` had a melting point of 254 °C.
Molecule `CCOC(=O)c1cc2c(=O)oc3ccccc3c2nc1NC` displayed a melting point of 232 to 233 °C.
The result for `C=C(C)CC1(CC)C(=O)NC(=S)NC1=O` reads 160 °C; that for `O=[N+]([O-])c1ccc(N=Nc2ccc(Nc3ccccc3)cc2)cc1`, 160 °C.
`COc1cc(-c2coc3cc(O)c(OC)c(O)c3c2=O)cc(O)c1OC` displayed a melting point of 185 °C.
Take `Cc1n[nH]c2c(=O)n(Cc3ccc(Cl)cc3)c(C)nc12`: the melting point fell in the range of 218 to 220 °C.
The result for `COC(=O)c1sccc1NC(=O)CBr` reads 91 to 94 °C; that for `Cc1ccc2sc(C(=O)CBr)c(C)c2c1`, 123 to 125 °C; that for `N#CC(=Cc1cccs1)c1nc2ccccc2s1`, 148 °C.
Next, `O=C=Nc1cccs1`: 108 to 110 °C; `CC(NC(=O)OCc1ccccc1)C(=O)O` (racemic): 112 to 113 °C.
Molecule `O=C(O)C(=S)CC1CCCC(CC(=S)C(=O)O)C1` (configuration not stated) yielded a melting point of 85 °C.
Next, `Cc1cccc(NN=C2C(=O)NN=C2C(F)(F)F)c1`: 155 °C; `OCc1ccccn1`: 5 °C; `CC(C)(OO)c1ccccc1`: -9 °C.
For the molecule `CC(CCC(=O)O)C1CCC2C3CCC4CCCCC4(C)C3CCC12C` (configuration not stated), the melting point came to 164 °C.
Next, `COC(=O)c1ccc(I)c([N+](=O)[O-])c1`: 102 °C; `COc1ccc(C(=O)O)c(OC)c1`: 109 °C; `Cc1cc(C)c2c(-c3ccccc3)nn(-c3ccccc3)c2n1`: 114 °C.
Next, `Cc1nccc(-c2cccc(Br)c2)n1`: 66 to 69 °C; `CCOC(=O)C1=C(NC(=O)c2ccco2)Oc2c(c(=O)oc3ccccc23)C1c1ccc(Br)cc1` (configuration not stated): 140 °C; `CCCCSc1sc(C(=O)OCC)c2c1C(=O)CCC2`: 70 to 73 °C.
As to `CC(=O)/C=C/c1cc(N(C)C)ccc1Cc1ccc(N(C)C)cc1I`, the melting point was 164 °C.
The result for `ClC(Cl)(Br)CBr` reads -26 °C; that for `COc1cccc(F)c1`, -35 °C.
Next, `CCN(CCO)CCn1c(Cc2ccccc2)nc2c1c(=O)n(C)c(=O)n2C`: 80 °C.
Next, `CSc1nc2cc(NCc3ccccc3Cl)ccc2[nH]1`: 207 to 209 °C.
Consider `CC1=NN(c2ccccc2)C(=O)C1C(c1ccc(O)cc1)C1C(=O)N(c2ccccc2)N=C1C` (configuration not stated), for which the melting point is 241 °C.
Next, `O=C=Nc1cccc2ccccc12`: 4 °C; `COc1ccc(-n2c(SC)nc3ccccc3c2=O)cc1`: 154 to 156 °C.
The result for `c1ccc2c(c1)ccc1ccc3ccc4ccc5cccnc5c4c3c12` reads 270 °C.
The result for `Cc1ccc(N2CCNCC2)cc1C` reads 63 °C.
`OC12CC=CCC1(O)CC=CC2` (configuration not stated) came in with a melting point of 83 °C.
For `Cc1ccc(N(SC(F)(Cl)Cl)S(=O)(=O)N(C)C)cc1`, the melting point came out at 96 °C.
The result for `CCOC(=O)COc1cc(Cl)c(Cl)cc1Cl` reads 64 °C; that for `O=C(O)CNC(=O)OCc1ccccc1`, 121 °C.
The result for `Nc1cccc(-n2cccc2)c1` reads 43 to 44 °C; that for `Nc1ccccc1CN1CCOCC1`, 70 to 71 °C; that for `CC(C)(C)OC(=O)CC(NC(=O)OCC1c2ccccc2-c2ccccc21)C(=O)O` (configuration not stated), 147 to 151 °C.
Next, `Clc1nccc2ccc(Br)cc12`: 124 °C; `O=C(O)CCCCCC(=O)c1ccccc1`: 85 °C; `O=C(Nc1cc(Cl)cc(Cl)c1O)c1c(O)c(Cl)cc(Cl)c1Cl`: 210 °C.
In turn, `O=C(O)CSC(=S)SCC(=O)O` returned a melting point of 170 to 175 °C.
Next, `Cc1cc2ccccc2c2ccc3ccccc3c12`: 118 °C.
The result for `Oc1ccnc(O)c1` reads 278 °C.
Consider `COc1ccc(NC(=S)NNC(=O)c2nn(-c3ccccc3)nc2C)cc1`, for which the melting point was 206 to 207 °C.
Turning to `Cc1nc(-c2cccc(C=O)c2)no1`, the melting point was 98 to 99 °C.
The result for `CC(=O)c1cc(Cl)ccc1Cl` reads 12 °C.
The result for `Cc1nc(Cl)c(C#N)c(C)c1Cl` reads 82 to 83 °C; that for `O=Cc1cccc2c([N+](=O)[O-])cccc12`, 136 °C.
In the case of `O=C(O)c1cccc(F)c1O`, the melting point worked out at 147 °C.
The result for `CNC(C)(C)C(=O)O` reads 300 °C; that for `Cc1c(Br)c(Br)c(O)c(Br)c1Br`, 195 to 200 °C; that for `Cc1cc(C#N)ccc1N`, 94 °C.
Next, `O=C1/C(=C/c2ccc([N+](=O)[O-])cc2)SC(=S)N1CN1CCCCC1`: 160 °C; `Cc1cc(C)c(Br)c(C)c1Br`: 65.5 °C.
Next, `CC(Cl)CCl` (configuration not stated): -100 °C; `Cc1n[nH]c(C)c1-c1ccccc1C(=O)O`: 256 °C; `COc1ccc(CC(=O)O)c(OC)c1OC`: 99 to 101 °C.
With `COc1ccc(C(N)C(N)c2ccc(OC)cc2)cc1` (configuration not stated), the melting point was 148 to 152 °C.
The result for `Cc1ccc(C)c2ncccc12` reads 4.5 °C; that for `C[Si](C)(C)O[Si](C)(C)O[Si](C)(C)C`, -80 °C; that for `C=COCCCl`, -70 °C.
Molecule `O=C(C1=NOC2C(=O)N(c3ccc(Br)cc3)C(=O)C12)c1ccc2ccccc2c1` (configuration not stated) displayed a melting point of 186 °C.
`CCCCCCCCCCCCCC=CC(O)C(CO)NC(=O)CCCCCCCCCCCCCCCCC` (configuration not stated) registered a melting point of 99 to 101 °C.
Next, `COc1cc(F)ccc1C(C)=O`: 52 °C; `NC1C2CCC(C2)C1C(=O)O` (configuration not stated): 275 to 278 °C.
Molecule `O=C(CBr)c1cccs1` returned a melting point of 109 to 111 °C.
Regarding `COC(=O)c1cc(Br)cc(Br)c1`, the melting point was determined as 63 °C.
Next, `CC(NNC(=O)c1ccccc1)c1ccccc1` (configuration not stated): 93.5 °C; `CCCc1ccc(-c2ccc(C(=O)O)cc2)cc1`: 226 °C.
On to `N#Cc1cc(Cl)nc(Cl)c1`, for which the melting point is 96 to 97 °C.
In turn, `O=C(c1ccccc1)N1CCNCC1` registered a melting point of 63 to 64 °C.
Next, `CC(=O)c1ccc(C2CCCCC2)cc1`: 68 °C; `Oc1cccc2c1CCCC2`: 70 °C.
`Cc1c(S(=O)(=O)c2ccc(Cl)cc2)csc1C(=O)Cl`: the melting point is 131 to 132 °C.
As to `FC(F)(F)C(F)(F)C(F)(F)C(F)(F)C(F)(F)I`, the melting point was -50 °C.
Next, `CC(=O)Oc1cc(OC(C)=O)c2c(=O)c(OC(C)=O)c(-c3ccc(OCc4ccccc4)cc3)oc2c1`: 150 °C; `Cc1nc(-c2cnccn2)sc1C(=O)Cl`: 101 °C; `FC(F)(F)Oc1ccccc1`: -50 °C.
`CC(=O)OC1CCC2(C)C(CCC3C4CCC(=O)C4(C)CCC32)C1` (configuration not stated) displayed a melting point of 138 °C.
`O=C(O)c1ccc(Cc2ccc(C(=O)O)cc2)cc1` displayed a melting point of 346 to 350 °C.
`O=CC(C=O)c1ccccc1[N+](=O)[O-]` gave a melting point of 118 to 123 °C.
As to `Nc1cccc2nonc12`, the melting point was in the range of 109 to 111 °C.
In turn, `O=C(Cl)c1ccc(Oc2ccccc2)nc1` returned a melting point of 80 to 82 °C.
The result for `Clc1ccc2c(c1)Oc1ccccc1O2` reads 88 °C; that for `FC(F)(F)c1ccc(I)cc1`, -8 °C.
Next, `Brc1ccc(Oc2ccc(Br)c(Br)c2)cc1Br`: 94 to 95 °C; `O=[N+]([O-])c1ccc(/C=C/C=C/C=C/c2ccc([N+](=O)[O-])cc2)cc1`: 240 °C; `O=C(O)c1ccc2c(c1)OCCO2`: 133 to 137 °C.
The result for `CC(=O)Oc1ccc(OC(C)=O)c(C)c1` reads 41 °C; that for `S=C(NN=Cc1c(-c2ccc(Cl)cc2)[nH]c2ccccc12)Nc1ccccc1`, 211 to 212 °C; that for `CON=C(C(=O)Sc1nc2ccccc2s1)c1csc(N)n1`, 126 to 130 °C.
Molecule `Cc1ccsc1C` had a melting point of -49 °C.
Regarding `O=C(O)C=Cc1cccnc1`, the melting point was 233 to 237 °C.
The result for `COc1ccc(F)cc1` reads -45 °C.
